# Results as given in ChEMBL document CHEMBL5230096, “A comprehensive insight on the recent development of Cyclic Dependent Kinase inhibitors as anticancer agents” (Eur J Med Chem, 2020).
# Columns and labels:
# [1] = molecular target: Cyclin-dependent kinase 2/cyclin E (Homo sapiens, UniProt P24941); experiment: Inhibition of CDK2/Cyclin E (unknown origin) expressed in baculovirus infected Sf9 cells using histone H1 as substrate in presence of gamma32P-ATP by scintillation counter analysis
# [2] = molecular target: CDK2/Cyclin A2 (Homo sapiens) (UniProt P24941+P20248); experiment: Inhibition of CDK2/Cyclin A2 (unknown origin) at 10 uM incubated for 40 mins in presence of ATP by Kinase-Glo Plus luminescence kinase assay; format: protein-complex assay
# CDK2/Cyclin A2 [3] = molecular target: T1, CDK2/Cyclin A2 (Homo sapiens, UniProt P24941); experiment: Inhibition of CDK2/Cyclin A2 (unknown origin) incubated for 40 mins in presence of ATP by Kinase-Glo Plus luminescence kinase assay; format: protein-complex assay
# [4] = tested on: Panel NCI-60 (60 carcinoma cell lines); experiment: Antiproliferative activity against human Panel NCI-60 (60 carcinoma cell lines) assessed as reduction in cell viability at 10 uM; format: functional
# CDK2/Cyclin A2 [5] = molecular target: T1, CDK2/Cyclin A2; experiment: Inhibition of CDK2/cyclin A2 (unknown origin) using histone as substrate in presence of ATP by luminescent ADP detection assay; format: protein-complex assay
# [6] = tested on: Panel NCI-60 (60 carcinoma cell lines); experiment: Antiproliferative activity against human Panel NCI-60 (60 carcinoma cell lines) cells assessed as inhibition of cell growth at 0.00001 M incubated for 48 hrs by sulforhodamine B assay; format: functional; set-up: scale not given: the % may be the effect or the level left; settings: dose 10 µM
# [7] = molecular target: T2, Cyclin-dependent kinase 2 (Homo sapiens, UniProt P24941)
# Description: Inhibition of CDK2 (unknown origin)
# CDK9/cyclin T1 = CDK9/cyclin T1 (Homo sapiens, UniProt P50750); experiment: Inhibition of CDK9/cyclin T1 (unknown origin) assessed as inhibition constant; format: protein-complex assay
# MCF7 [8] = experiment: Antiproliferative activity against human MCF7 cells assessed as reduction in cell proliferation incubated for 48 hrs by Sulfo-Rhodamine-B stain (SRB) assay; format: functional, cell-based; settings: MCF7, 48 h
# [9] = molecular target: T2, Cyclin-dependent kinase 2; experiment: Inhibition of human CDK2 using TMB as substrate preincubated for 210 mins followed by substrate addition and measured after 15 to 25 mins by spectrophotometric analysis
# HeLa [10] = experiment: Antiproliferative activity against human HeLa cells assessed as reduction in cell viability incubated for 3 days by MTT assay; format: functional, cell-based; settings: 72 h
# K562 = experiment: Antiproliferative activity against human K562 cells assessed as reduction in cell proliferation incubated for 3 days by calcein AM staining based fluorescent analysis; format: functional; settings: K562, 72 h
# [11] = molecular target: Cyclin-dependent kinase 2/cyclin E1 (Homo sapiens, UniProt P24941); experiment: Inhibition of CDK2/cyclin E1 (unknown origin) expressed in Sf9 cells using histone H1 as substrate in presence of ATP by microplate reader analysis
# MCF7 [12] = experiment: Antiproliferative activity against human MCF7 cells assessed as reduction in cell proliferation incubated for 3 days by calcein AM staining based fluorescent analysis; format: functional; settings: MCF7, 72 h
# HCT-116 = experiment: Anticancer activity against human HCT-116 cells assessed as reduction in cell viability incubated for 48 hrs by MTT assay; format: functional, cell-based; settings: HCT-116, 48 h
# MCF7 [13] = experiment: Anticancer activity against human MCF7 cells assessed as reduction in cell viability incubated for 48 hrs by MTT assay; format: functional, cell-based; settings: MCF7, 48 h
# [14] = tested on: Human immunodeficiency virus 1; experiment: Antiviral activity against HIV1; format: functional, organism-based
# HeLa [15] = experiment: Antiproliferative activity against human Hela cells assessed as reduction in cell viability by MTT assay; format: functional, cell-based
# Histone deacetylase = experiment: Inhibition of HDAC (unknown origin); format: protein assay, Homo sapiens
# B16-F10 = experiment: Antiproliferative activity against mouse B16-F10 cells assessed reduction in cell proliferation; format: functional, cell-based
# MCF7 [16] = experiment: Antiproliferative activity against human MCF7 cells assessed reduction in cell proliferation; format: functional, cell-based
# Chain of CDK9/cyclin T1 (O60563 whole entry): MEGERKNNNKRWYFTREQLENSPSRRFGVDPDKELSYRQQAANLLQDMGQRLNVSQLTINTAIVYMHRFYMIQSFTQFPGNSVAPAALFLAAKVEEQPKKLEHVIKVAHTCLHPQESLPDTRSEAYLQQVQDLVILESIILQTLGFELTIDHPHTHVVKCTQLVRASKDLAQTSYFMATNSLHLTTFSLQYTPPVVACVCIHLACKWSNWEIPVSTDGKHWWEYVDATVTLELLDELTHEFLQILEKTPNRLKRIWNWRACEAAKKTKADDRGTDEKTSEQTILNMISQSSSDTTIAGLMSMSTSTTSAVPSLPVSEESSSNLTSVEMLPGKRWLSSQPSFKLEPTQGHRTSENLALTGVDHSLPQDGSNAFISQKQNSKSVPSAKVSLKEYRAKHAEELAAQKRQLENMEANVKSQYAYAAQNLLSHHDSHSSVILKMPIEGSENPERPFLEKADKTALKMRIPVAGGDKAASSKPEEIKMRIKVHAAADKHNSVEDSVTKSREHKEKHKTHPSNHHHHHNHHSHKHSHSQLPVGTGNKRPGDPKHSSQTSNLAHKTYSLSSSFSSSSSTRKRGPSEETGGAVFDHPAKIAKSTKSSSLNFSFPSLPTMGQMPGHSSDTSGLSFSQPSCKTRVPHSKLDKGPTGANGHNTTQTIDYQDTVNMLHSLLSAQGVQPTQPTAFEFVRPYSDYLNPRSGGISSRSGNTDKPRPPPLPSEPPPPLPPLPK
# Chain of CDK9/cyclin T1 (P50750 whole entry): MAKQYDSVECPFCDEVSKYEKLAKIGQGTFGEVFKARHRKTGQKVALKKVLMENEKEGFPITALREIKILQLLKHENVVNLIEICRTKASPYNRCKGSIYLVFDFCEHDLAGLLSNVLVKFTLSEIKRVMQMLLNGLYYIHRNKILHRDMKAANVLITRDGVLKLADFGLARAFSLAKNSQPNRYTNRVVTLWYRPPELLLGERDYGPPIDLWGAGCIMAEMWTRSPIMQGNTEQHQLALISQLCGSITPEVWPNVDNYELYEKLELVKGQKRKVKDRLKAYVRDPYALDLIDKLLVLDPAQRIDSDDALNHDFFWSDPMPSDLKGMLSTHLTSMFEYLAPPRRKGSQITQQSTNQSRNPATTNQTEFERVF
smiles,measurement,setting,value
O=c1[nH]cc(-c2ccc(O)cc2)c2nccn12,IC50,[1],1.3 µM
CCOC(=O)c1cnn2c(-c3ccc(Cl)cc3)nc(NCc3ccccc3)nc12,inhibition,[2],82.4%
same,IC50,CDK2/Cyclin A2 [3],2.09 µM
same,inhibition at 10 µM,[4],41.8%
O=C(c1cnn(-c2cc(NCc3ccccc3)ncn2)c1)N1CCOCC1,IC50,CDK2/Cyclin A2 [5],< 0.02 µM
CN1CCN(C(=O)c2cnn(-c3cc(NCc4ccccc4)ncn3)c2)CC1,IC50,CDK2/Cyclin A2 [5],< 0.02 µM
COc1ccc(-n2c(-c3ccccc3)c(-c3ccccc3)c3c(SCC(=O)N/N=C\c4ccc(N(C)C)cc4)ncnc32)cc1,Activity,[6],<50%
C[C@@H](CO)Nc1nc(N)c(N=O)c(OCC2CCCCC2)n1,IC50,[7],0.16 µM
CN(C)c1ccc(-c2cc(-c3c(O)c4ccccc4oc3=O)nc(N)c2C#N)cc1,Ki,CDK9/cyclin T1,0.00326 µM
Cc1ccc(S(=O)(=O)Nc2ccc(-c3ccnc(Nc4ccc(S(=O)(=O)Nc5nccc(C)n5)cc4)c3C#N)cc2)cc1,IC50,MCF7 [8],18.3 µM
same,IC50,[9],1.79 µM
COc1cccc2c1C(=O)c1c(O)c3c(c(O)c1C2=O)C[C@@](O)(C(=O)CO)C[C@@H]3O[C@H]1C[C@H](N)[C@H](O)[C@H](C)O1 [DOXORUBICIN],IC50,HeLa [10],1.11 µM
COc1ccccc1/C=C/C(=C(C#N)C#N)c1ccc(NS(=O)(=O)c2ccc(C)cc2)cc1,IC50,MCF7 [8],26.3 µM
same,IC50,[9],2.92 µM
COc1ccc(-n2c(-c3ccccc3)c(-c3ccccc3)c3c(SCC(=O)N/N=C\c4ccccc4[N+](=O)[O-])ncnc32)cc1,Activity,[6],<50%
CCCCCSc1nc(OC(=O)c2ccco2)c2cn[nH]c2n1,IC50,K562,19.8 µM
same,IC50,[11],21.2 µM
same,IC50,MCF7 [12],18.9 µM
Nc1ccc(-c2nc3ncccc3[nH]2)cc1,IC50,HCT-116,3.06 µM
same,IC50,MCF7 [13],0.71 µM
O=C(c1ccccc1)N1C(=O)C(C2C(=O)N(C(=O)c3ccccc3)C(=S)N(c3ccc(F)cc3)C2=O)C(=O)N(c2ccc(F)cc2)C1=S (stereo not given),IC50,[7],5.2 µM
same,IC50,[14],2.7 µM
O=C(Oc1nc(SCCc2ccccc2)nc2[nH]ncc12)c1cc2ccccc2o1,IC50,K562,19.8 µM
same,IC50,MCF7 [12],18.9 µM
Cc1ccc(S(=O)(=O)Nc2ccc(-c3ccnc(Nc4ccc(S(=O)(=O)Nc5cc(C)no5)cc4)c3C#N)cc2)cc1,IC50,MCF7 [8],20.4 µM
O=c1[nH]cc(-c2ccccc2F)c2nccn12,IC50,[1],3.2 µM
O=c1[nH]cc(-c2ccccc2Cl)c2nccn12,IC50,[1],1.5 µM
Cc1ccc(-n2cc(-c3ccccc3)c3c(SCC(=O)N/N=C\c4ccccc4[N+](=O)[O-])ncnc32)cc1,Activity,[6],<50%
CCCCCSc1nc(Nc2ccc(SC)cc2)c2cn[nH]c2n1,IC50,K562,19.9 µM
same,IC50,[11],8.8 µM
same,IC50,MCF7 [12],19.2 µM
COc1ccc(NC(=O)c2cnn(-c3cc(NCc4ccccc4)ncn3)c2)cc1,IC50,CDK2/Cyclin A2 [5],< 0.02 µM
Nc1ccc(/N=N/c2ccc(-c3nc4ncccc4[nH]3)cc2)cc1,IC50,HCT-116,1.83 µM
same,IC50,MCF7 [13],2.84 µM
O=C1CC(=O)N(c2ccc(S(=O)(=O)Nc3nccs3)cc2)C(=S)N1C(=O)c1ccccc1,IC50,[14],4.5 µM
CCOC(=O)C1=C(Cn2cc(COc3ccccc3C3NC(=O)NC(CCl)=C3C(=O)OCC)nn2)NC(=O)NC1c1ccc(O)c(OC)c1 (stereo not given),IC50,HeLa [15],18 µM
Clc1ccccc1Nc1nc(SCCc2ccccc2)nc2[nH]ncc12,IC50,K562,19.9 µM
same,IC50,[11],7.8 µM
same,IC50,MCF7 [12],19.2 µM
CCCCCSc1nc(Nc2ccccc2Cl)c2cn[nH]c2n1,IC50,K562,19.9 µM
same,IC50,[11],5.1 µM
same,IC50,MCF7 [12],19.2 µM
O=C1CC(=O)N(c2ccc(S(=O)(=O)Nc3ncccn3)cc2)C(=S)N1C(=O)c1ccccc1,IC50,[14],3.1 µM
O=C(CCCn1cc(CNC2CCCCC2)c(-c2ccccc2)n1)NO,IC50,Histone deacetylase,2.95 µM
same,IC50,[7],4.63 µM
same,IC50,B16-F10,3.9 µM
same,IC50,MCF7 [16],1.12 µM
O=[N+]([O-])c1cccc(Nc2nc(SCCc3ccccc3)nc3[nH]ncc23)c1,IC50,K562,19.9 µM
same,IC50,[11],8.7 µM
same,IC50,MCF7 [12],19.2 µM
